#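 Five concentrations, 48 hours, 96-well plates. TGI denotes the concentration required for complete inhibition of growth.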
# Legend:
# Assay in all cases: growth of human tumour cells (NCI), 48 h
# [1] = system: DLD-1 colon
# [2] = system: DMS 114 small cell lung
# [3] = system: DMS 273 small cell lung
# [4] = system: HOP-18 NSCLC
# [5] = system: LXFL 529 NSCLC
# [6] = system: M19-MEL melanoma
# [7] = system: SNB-78 CNS
# [8] = system: XF 498 CNS
# [9] = system: RXF-631 renal
SMILES,TGI [1] [µM],TGI [2] [µM],TGI [3] [µM],TGI [4] [µM],TGI [5] [µM],TGI [6] [µM],TGI [7] [µM],TGI [8] [µM],TGI [9] [µM]
CCOc1ccc(/C(Cl)=C(\C=O)c2ccc(OC)c(OC)c2)cc1OCC,> 100,66.1,> 100,> 100,> 100,> 100,> 100,> 100,
C=CCNC(=O)N(CCCC(NC(C)=O)C(=O)NCc1ccccc1)Cc1ccccc1 (stereo unspecified),,> 100,> 100,> 100,> 100,> 100,,> 100,
CC1CN(c2ccc(Cl)cc2)CC(C)OC(=O)O1 (stereo unspecified),> 100,> 100,> 100,,> 100,> 100,> 100,> 100,
CCOC(=O)/C=C/n1c2ccccc2c(=O)c2ccccc21,> 100,> 100,> 100,,> 100,> 100,,> 100,
COc1cc([C@@H]2c3cc4c(cc3[C@@H](OC(=O)c3ccc(N)cc3)C3COC(=O)[C@@H]32)OCO4)cc(OC)c1O (stereo partly specified),> 95,,61.9,> 95,> 95,> 95,> 95,,42
CN1c2ccccc2N(C(=O)c2ccc(Cl)cc2)C(CC(=O)O)c2cccn21 (stereo unspecified),> 100,> 100,> 100,,> 100,> 100,> 100,> 100,
CN(C)C(=S)/N=c1\ssc(=S)n1Cc1ccccc1,> 55.1,0.456,,> 100,> 100,> 100,> 100,,
COC(=O)/C(=N\NC(=O)C[N+](C)(C)C)C(C(=O)OC)C(=O)C(=O)Nc1ccccc1C(N)=O (stereo unspecified),> 100,,> 100,> 100,> 100,> 100,> 100,,
COc1ccc(N=Cc2ccc(N(CCC#N)S(=O)(=O)c3ccccc3)cc2)cc1,> 100,> 100,> 100,> 100,> 100,> 100,> 100,> 100,> 100
Nc1nc(SCc2ccc([N+](=O)[O-])cc2)nc2c1ncn2C1OC(CO)C(O)C1O (stereo unspecified),> 100,> 100,> 100,,> 100,> 100,> 100,> 100,
Cc1ccc([N+](=O)[O-])cc1NC(=O)/C(=N/NC(=S)NN)C1SC(=S)NC1=O (stereo unspecified),> 100,> 100,> 100,> 100,> 100,,> 100,> 100,
Nc1ccc2c(SCc3ccc([N+](=O)[O-])cc3)c3ccccc3nc2c1,6.04,29.8,39.2,26.5,18.5,26.5,63.7,27.7,
CCN(CC)CCOc1ccc(CCc2cc(OC)c(OC)c(OC)c2)cc1,> 100,73.8,35.8,> 100,> 100,53.8,> 100,57.7,> 100
N#C/C(c1nc2ccccc2[nH]1)=c1\s/c(=C/c2ccc(Cl)cc2)c(=O)n1-c1ccccc1,> 100,> 100,> 100,> 100,> 100,> 100,,> 100,
CC(=O)NNc1nc(C)c(C(=O)/C=C/c2ccccc2Cl)s1,> 100,> 100,> 100,> 100,,> 100,> 100,,> 100
C=CCC(N(C)C(=O)[C@H](Cc1ccccc1)NC(=O)OCc1ccccc1)P(=O)(Oc1ccccc1)Oc1ccccc1 (stereo partly specified),> 100,> 100,> 100,,> 100,> 100,> 100,> 100,
CCC12CCCN(Cc3ccccc3)C1c1c(n(C)c3ccccc13)C(C(=O)OC)C2 (stereo unspecified),> 239,> 239,> 239,,> 239,> 239,,118,> 239
O=C1c2ccccc2OP(=O)(OCC(F)(F)F)OC1(C(F)(F)F)C(F)(F)F (stereo unspecified),,> 100,> 100,,> 100,> 100,> 100,> 100,
COC(=O)C(C#CCCCCC#CC(NC(=O)OCc1ccccc1)(C(=O)OC)C(F)(F)F)(NC(=O)OCc1ccccc1)C(F)(F)F (stereo unspecified),> 100,> 100,,> 100,> 100,> 100,> 100,,> 100
O=c1[nH]nc2ccccc2c1Cc1ccccc1,> 100,> 100,> 100,> 100,,> 100,> 100,> 100,
COC(=O)CC1NC(=O)[C@@H]1C(C)O (stereo partly specified),,> 100,> 100,,> 100,> 100,,> 100,
Clc1ccc(N=Nc2nc3ccccc3nc2N=Nc2ccc(Cl)cc2Cl)c(Cl)c1,> 100,> 100,,,> 100,> 100,> 100,> 100,
CN(C)C(=S)/N=c1\ssc(=S)n1Cc1cccnc1,> 100,3.89,> 100,> 100,> 100,> 46.6,> 100,47.1,> 100
